In patent US10526309B2, “Pan-TAM inhibitors and Mer/Axl dual inhibitors” (The University of North Carolina at Chapel Hill, priority 2015, dated 2020):

What was measured:
Assay type in all cases: biochemical
[1] = target: T1, FLT3 (Homo sapiens, UniProt P36888); assay: FLT3 kinase inhibition IC50; conditions: Example 6
T1 sequence (P36888 27-993): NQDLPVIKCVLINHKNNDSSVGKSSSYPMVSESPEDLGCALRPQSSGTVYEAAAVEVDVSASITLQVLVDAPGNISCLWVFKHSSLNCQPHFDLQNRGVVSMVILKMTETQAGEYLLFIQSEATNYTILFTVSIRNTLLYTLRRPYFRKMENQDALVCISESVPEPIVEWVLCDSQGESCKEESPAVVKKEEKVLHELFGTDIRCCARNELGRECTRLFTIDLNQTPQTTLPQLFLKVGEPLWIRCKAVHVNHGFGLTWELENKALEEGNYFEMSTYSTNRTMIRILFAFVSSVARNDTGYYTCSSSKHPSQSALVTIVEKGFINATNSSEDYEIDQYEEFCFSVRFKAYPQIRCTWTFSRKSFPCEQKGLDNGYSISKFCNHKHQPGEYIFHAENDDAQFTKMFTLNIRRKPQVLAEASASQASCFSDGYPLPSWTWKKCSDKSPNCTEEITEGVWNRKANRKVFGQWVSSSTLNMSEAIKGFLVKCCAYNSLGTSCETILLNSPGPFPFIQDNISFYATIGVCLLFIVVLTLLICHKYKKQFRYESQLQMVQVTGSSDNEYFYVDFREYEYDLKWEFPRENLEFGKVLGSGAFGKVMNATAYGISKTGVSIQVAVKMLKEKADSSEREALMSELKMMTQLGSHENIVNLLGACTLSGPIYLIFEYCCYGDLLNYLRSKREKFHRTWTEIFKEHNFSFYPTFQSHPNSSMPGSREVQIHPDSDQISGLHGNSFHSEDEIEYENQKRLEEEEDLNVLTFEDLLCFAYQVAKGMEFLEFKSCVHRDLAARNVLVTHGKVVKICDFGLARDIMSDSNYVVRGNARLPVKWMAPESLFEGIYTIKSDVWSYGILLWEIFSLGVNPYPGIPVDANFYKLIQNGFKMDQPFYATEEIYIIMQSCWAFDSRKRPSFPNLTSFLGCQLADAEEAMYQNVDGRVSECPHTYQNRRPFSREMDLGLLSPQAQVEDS

[2] = target: T2, Tyro3 (Homo sapiens, UniProt Q06418); assay: Tyro3 kinase inhibition IC50; conditions: Example 6; read-out: Tyro IC50
T2 sequence (Q06418 41-890): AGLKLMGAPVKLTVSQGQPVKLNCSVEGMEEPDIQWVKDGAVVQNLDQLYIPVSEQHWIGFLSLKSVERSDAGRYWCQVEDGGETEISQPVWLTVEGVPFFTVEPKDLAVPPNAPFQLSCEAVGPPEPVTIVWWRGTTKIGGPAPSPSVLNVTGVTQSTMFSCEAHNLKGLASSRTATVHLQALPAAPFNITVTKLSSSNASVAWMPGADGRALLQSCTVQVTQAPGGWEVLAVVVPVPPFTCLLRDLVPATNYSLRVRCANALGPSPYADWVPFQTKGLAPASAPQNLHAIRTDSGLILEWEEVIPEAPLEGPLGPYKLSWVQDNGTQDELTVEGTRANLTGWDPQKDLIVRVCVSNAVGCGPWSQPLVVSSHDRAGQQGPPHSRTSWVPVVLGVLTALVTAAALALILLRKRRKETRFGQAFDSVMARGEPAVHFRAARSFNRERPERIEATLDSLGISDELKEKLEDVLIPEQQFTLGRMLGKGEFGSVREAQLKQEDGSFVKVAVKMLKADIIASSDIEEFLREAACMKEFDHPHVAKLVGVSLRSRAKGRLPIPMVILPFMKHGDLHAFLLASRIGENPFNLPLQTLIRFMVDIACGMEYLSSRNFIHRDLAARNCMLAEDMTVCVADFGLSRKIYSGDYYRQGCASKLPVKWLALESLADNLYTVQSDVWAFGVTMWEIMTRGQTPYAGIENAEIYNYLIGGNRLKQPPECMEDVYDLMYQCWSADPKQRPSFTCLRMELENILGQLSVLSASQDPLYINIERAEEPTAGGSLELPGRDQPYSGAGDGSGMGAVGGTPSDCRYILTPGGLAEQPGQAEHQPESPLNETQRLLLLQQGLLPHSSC

[3] = target: T3, Mer (Homo sapiens, UniProt Q12866); assay: Mer kinase inhibition IC50; conditions: Example 6; read-out: MerTK IC50
T3 sequence (Q12866 21-999): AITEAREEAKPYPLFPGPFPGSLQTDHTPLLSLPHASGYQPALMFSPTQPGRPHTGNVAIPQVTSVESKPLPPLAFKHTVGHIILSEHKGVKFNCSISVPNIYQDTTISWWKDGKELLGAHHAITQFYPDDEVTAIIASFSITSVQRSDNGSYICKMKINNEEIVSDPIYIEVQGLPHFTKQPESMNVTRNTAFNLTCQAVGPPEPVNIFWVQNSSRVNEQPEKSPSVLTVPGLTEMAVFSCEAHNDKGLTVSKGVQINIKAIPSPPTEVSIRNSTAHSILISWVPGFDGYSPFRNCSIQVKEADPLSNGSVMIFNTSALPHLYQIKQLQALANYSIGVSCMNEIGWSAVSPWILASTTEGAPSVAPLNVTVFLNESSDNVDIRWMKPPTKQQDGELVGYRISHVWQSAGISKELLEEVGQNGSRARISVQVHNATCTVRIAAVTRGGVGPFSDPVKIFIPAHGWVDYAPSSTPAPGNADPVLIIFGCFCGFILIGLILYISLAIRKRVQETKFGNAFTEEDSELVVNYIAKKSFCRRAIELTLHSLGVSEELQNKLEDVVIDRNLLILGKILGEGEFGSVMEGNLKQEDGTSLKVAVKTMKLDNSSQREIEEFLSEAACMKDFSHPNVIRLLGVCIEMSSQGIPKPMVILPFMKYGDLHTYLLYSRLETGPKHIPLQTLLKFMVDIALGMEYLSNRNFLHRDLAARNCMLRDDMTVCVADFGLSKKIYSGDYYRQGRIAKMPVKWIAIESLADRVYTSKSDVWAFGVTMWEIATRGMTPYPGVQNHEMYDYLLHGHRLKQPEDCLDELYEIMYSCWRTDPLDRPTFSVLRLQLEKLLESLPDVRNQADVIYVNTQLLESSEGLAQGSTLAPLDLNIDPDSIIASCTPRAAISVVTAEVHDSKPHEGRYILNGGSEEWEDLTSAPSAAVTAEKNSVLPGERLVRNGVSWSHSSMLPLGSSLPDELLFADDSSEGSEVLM

[4] = target: T4, Axl (Homo sapiens, UniProt P30530); assay: Axl kinase inhibition IC50; conditions: Example 6
T4 sequence (P30530 26-894): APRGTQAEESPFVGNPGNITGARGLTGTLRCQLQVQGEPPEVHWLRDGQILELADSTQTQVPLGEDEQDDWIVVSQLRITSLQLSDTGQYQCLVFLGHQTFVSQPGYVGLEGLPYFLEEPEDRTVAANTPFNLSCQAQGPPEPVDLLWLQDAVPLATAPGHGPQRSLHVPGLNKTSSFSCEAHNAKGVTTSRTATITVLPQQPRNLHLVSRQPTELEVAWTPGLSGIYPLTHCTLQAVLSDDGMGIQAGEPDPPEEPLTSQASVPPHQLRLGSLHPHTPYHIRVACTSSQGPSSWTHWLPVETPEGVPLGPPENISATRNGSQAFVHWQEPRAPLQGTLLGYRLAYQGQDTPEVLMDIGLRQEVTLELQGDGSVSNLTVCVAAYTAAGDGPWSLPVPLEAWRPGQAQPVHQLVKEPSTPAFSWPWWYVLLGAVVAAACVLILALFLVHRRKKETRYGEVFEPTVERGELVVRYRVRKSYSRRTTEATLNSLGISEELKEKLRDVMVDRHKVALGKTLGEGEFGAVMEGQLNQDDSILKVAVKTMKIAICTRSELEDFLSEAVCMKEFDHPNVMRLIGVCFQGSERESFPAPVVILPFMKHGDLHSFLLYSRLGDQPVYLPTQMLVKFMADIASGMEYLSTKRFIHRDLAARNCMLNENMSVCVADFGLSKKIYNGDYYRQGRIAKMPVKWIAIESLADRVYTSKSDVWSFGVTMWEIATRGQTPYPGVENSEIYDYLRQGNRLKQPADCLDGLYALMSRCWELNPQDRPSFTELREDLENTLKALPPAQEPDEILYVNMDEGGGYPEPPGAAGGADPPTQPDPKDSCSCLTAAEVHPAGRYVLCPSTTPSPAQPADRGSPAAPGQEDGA

Compound `CCCCN(C)c1ncc2c(-c3ccc(F)cc3)nn(C[C@H]3CC[C@H](N)CC3)c2n1` [UNC1653, reference compound] has an IC50 [1] of 0.22 µM, an IC50 [2] of 15 µM and an IC50 [3] of 0.55 µM. For the same compound, the IC50 [4] was 7 µM.
